Laboratory results taken from article PMC12301304 (Frontiers in Pharmacology, 2025).

Legend:
Conditions in all cases: in vivo
[1] = target: CYP2e1 (Rattus norvegicus, UniProt P05182)
Protocol: The effect of the Zhicaowu–Hezi combination on CYP450 enzymes in rats was evaluated by examining the pharmacokinetics of theophylline (CYP1a2), metoprolol (CYP2d2), bupropion (CYP2b1), omeprazole (CYP2c13), chlorzoxazone (CYP2e1), testosterone (CYP3a1), and diclofenac (CYP2c11).
The collected blood was placed in sodium heparin-treated centrifuge tubes and centrifuged at 4°C for 10 min at 3,000 RPM. […] After 10 min of sedimentation, the supernatant was extracted through a 0.22-μm microporous membrane, 20 μL of which was injected into HPLC. The pharmacokinetic parameters of each probe drug were calculated using the non-atrial compartment model in Drug and Statistics software (DAS, 3.0; Shanghai, China).

[2] = target: T1, CYP1a2 (Rattus norvegicus, UniProt P04799); set-up: from tissue; host or cells: live male Sprague-Dawley rats (whole animal, mainly liver)
T1 sequence (P04799 1-513): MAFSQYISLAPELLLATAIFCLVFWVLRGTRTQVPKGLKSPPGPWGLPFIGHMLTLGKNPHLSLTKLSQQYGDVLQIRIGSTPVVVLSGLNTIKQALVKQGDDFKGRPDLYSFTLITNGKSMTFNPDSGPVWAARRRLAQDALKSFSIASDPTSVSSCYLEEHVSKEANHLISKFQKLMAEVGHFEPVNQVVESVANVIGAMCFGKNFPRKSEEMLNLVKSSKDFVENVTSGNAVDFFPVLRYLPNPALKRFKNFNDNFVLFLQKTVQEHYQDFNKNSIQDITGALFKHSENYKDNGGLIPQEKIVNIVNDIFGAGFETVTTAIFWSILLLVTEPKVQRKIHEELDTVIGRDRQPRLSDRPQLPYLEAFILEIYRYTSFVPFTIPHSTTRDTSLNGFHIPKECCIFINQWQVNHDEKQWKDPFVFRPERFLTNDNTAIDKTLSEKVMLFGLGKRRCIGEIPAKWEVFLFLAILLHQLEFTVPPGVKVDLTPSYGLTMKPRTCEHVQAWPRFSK

[3] = target: T2, CYP2c11 (Rattus norvegicus, UniProt P08683); set-up: from tissue; host or cells: live male Sprague-Dawley rats (whole animal, mainly liver)
T2 sequence (P08683 1-500): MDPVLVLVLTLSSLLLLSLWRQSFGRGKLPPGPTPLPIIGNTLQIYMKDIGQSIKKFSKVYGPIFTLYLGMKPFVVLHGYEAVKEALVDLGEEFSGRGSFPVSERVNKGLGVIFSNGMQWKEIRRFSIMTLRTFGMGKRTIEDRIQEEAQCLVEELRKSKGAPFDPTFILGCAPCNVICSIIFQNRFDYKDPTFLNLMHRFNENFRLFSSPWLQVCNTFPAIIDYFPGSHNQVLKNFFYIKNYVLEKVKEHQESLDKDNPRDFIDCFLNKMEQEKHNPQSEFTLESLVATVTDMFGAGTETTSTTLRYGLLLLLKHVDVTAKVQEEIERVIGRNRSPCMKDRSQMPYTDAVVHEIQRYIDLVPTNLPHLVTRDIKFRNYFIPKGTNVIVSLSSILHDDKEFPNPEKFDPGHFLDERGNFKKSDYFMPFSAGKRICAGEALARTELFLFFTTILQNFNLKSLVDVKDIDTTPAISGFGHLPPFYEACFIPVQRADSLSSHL

[4] = target: T3, CYP2d2 (Rattus norvegicus, UniProt P10634); set-up: from tissue; host or cells: live male Sprague-Dawley rats (whole animal, mainly liver)
T3 sequence (P10634 1-500): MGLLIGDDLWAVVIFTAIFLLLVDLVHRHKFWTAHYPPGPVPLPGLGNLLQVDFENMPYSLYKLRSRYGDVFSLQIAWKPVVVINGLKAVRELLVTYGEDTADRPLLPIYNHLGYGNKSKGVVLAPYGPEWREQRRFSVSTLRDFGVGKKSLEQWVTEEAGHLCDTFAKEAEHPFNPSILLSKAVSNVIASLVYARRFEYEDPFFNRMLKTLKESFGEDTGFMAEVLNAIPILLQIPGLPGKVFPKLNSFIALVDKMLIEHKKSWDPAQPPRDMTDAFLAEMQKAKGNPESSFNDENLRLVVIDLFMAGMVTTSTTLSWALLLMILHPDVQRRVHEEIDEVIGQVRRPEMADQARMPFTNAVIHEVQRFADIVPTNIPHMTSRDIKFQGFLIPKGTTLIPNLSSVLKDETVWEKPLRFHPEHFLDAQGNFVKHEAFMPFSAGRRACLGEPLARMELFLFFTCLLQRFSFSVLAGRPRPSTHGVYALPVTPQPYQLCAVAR

[5] = target: T4, CYP2c13 (Rattus norvegicus, UniProt P20814); set-up: from tissue; host or cells: live male Sprague-Dawley rats (whole animal, mainly liver)
T4 sequence (P20814 1-490): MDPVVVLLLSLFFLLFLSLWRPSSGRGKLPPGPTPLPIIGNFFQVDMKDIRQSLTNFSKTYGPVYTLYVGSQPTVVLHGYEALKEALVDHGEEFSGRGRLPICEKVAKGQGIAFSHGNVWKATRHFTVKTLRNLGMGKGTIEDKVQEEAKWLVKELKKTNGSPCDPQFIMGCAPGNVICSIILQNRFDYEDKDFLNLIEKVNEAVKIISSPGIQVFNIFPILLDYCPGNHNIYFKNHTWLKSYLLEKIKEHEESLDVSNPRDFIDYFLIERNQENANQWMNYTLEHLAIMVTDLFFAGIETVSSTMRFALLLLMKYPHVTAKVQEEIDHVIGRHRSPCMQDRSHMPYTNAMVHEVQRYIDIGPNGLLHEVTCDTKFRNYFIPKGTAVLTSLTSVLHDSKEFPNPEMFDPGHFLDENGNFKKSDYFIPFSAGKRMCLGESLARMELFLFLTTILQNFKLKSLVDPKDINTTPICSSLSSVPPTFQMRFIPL

CYP2e1, sequence (P05182 whole entry): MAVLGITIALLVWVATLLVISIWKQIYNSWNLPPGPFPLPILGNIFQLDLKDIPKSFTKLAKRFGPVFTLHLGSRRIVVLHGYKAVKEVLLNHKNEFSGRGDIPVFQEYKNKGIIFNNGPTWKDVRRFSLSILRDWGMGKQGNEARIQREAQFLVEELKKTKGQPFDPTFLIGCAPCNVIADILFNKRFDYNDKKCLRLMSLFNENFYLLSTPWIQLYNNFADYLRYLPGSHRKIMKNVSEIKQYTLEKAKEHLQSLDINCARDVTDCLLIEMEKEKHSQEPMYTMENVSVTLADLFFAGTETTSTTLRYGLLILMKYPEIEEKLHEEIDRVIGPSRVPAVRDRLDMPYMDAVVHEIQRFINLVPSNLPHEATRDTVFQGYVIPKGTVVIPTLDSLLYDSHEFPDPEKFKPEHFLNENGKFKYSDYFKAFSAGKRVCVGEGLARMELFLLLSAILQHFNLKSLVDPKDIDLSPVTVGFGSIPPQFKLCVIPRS

CCC1(c2ccccc2)C(=O)NC(=O)NC1=O [P, phenobarbital sodium]
chlorzoxazone AUC(0-t) [1]: 32754 ± 4037 ng·h/mL | chlorzoxazone AUC(0-∞) [1]: 47632 ± 6051 ng·h/mL | chlorzoxazone CLz/F [1]: 13.4061 ± 1.1103 mL/min/kg | chlorzoxazone Cmax [1]: 3543 ± 431 ng/mL | chlorzoxazone t1/2 z [1]: 13.368 ± 1.308 h | theophylline AUC(0-t) [2]: 12257 ± 742 ng·h/mL | theophylline AUC(0-∞) [2]: 13565 ± 801 ng·h/mL | theophylline CLz/F [2]: 7,744.326 ± 56.253 mL/h/kg | theophylline Cmax [2]: 1138 ± 201 ng/mL | theophylline t1/2 z [2]: 2.509 ± 0.436 h | diclofenac AUC(0-t) [3]: 3978 ± 385 ng·h/mL | diclofenac AUC(0-∞) [3]: 4057 ± 343 ng·h/mL | diclofenac CLz/F [3]: 3,071.310 ± 519.261 mL/h/kg | diclofenac Cmax [3]: 735 ± 68 ng/mL | diclofenac t1/2 z [3]: 3.342 ± 0.425 h | metoprolol AUC(0-t) [4]: 3511 ± 445 ng·h/mL | metoprolol AUC(0-∞) [4]: 3623 ± 461 ng·h/mL | metoprolol CLz/F [4]: 2,495.074 ± 157.841 mL/h/kg | metoprolol Cmax [4]: 312 ± 41 ng/mL | metoprolol t1/2 z [4]: 2.532 ± 0.221 h | omeprazole AUC(0-t) [5]: 3040 ± 177 ng·h/mL | omeprazole AUC(0-∞) [5]: 3187 ± 239 ng·h/mL | omeprazole CLz/F [5]: 3,028.688 ± 253.193 mL/h/kg | omeprazole Cmax [5]: 535 ± 63 ng/mL | omeprazole t1/2 z [5]: 2.761 ± 0.227 h
